This is an account of results in PubChem BioAssay AID2305 (GlaxoSmithKline (GSK), 2010).

The test system of the experiment is P. falciparum 3D7 growth, pLDH absorbance. The experiment is described as follows: P. falciparum 3D7 growth inhibition, dose response, strain 3D7 (AID 2305).

The term IC50 denotes the concentration that gives 50% inhibition. A higher IC50 goes with weaker potency.

For `NS(=O)(=O)c1ccc(CNc2ccc3ncc(-c4ccc(OC(F)(F)F)cc4)n3n2)cc1`, the IC50 turned out to be 0.58 µM. This counts as sub-micromolar.

The compound `CCc1ccccc1N1CCN(CCCC(=O)c2ccc(NC(=O)c3cc(Cl)cc(Cl)c3)cc2)CC1` showed an IC50 of 0.29 µM. This IC50 is about 2-fold lower than that of the compound before.

As for `c1ccc(CNCCn2c(-c3ccc4c(c3)CCO4)nc3c(N4CCCC4)cccc32)cc1`, the IC50 came to 1.13 µM.

In turn, `NC1=NC(c2ccccc2)(c2ccccc2)C(=O)N1CC=Cc1ccccc1` came in with an IC50 of 0.6 µM.

Compound `N#Cc1cccc(NC(=O)Nc2ccc3c(c2)CN(Cc2c[nH]c4ncccc24)C3)c1` came in with an IC50 of 0.8 µM.

Compound `Oc1ccccc1CN[C@@H]1CCCC[C@H]1NCc1ccccc1O` returned an IC50 of 0.95 µM.

Regarding `O=C(NCC1CCC(C(=O)NCc2cccc(C(F)(F)F)c2)CC1)c1ccc(O)c(-c2ccc(Cl)c(Cl)c2)c1` (stereo not drawn), the IC50 was 0.71 µM. The IC50 values of the last two compounds are within 1.5-fold of each other.

As for `CC(C)(C)c1cc(Cn2ccnc2)cc(C(C)(C)C)c1O`, the IC50 worked out at 1.04 µM.

For `COc1ccc(C2C(C(=O)Nc3cc(C)ccc3OC)c3ccccc3C(=O)N2C)cc1` (stereo not drawn), the concentration for half-maximal inhibition (IC50) was 0.98 µM.

In turn, `FC(F)(F)c1ccc(/C=C/c2cncnc2Nc2ccc3nc(Cc4ccccc4)[nH]c3c2)cc1` gave an IC50 of 0.61 µM.

Consider `c1ccc(-c2cccc(-c3ccccn3)n2)nc1`, for which the IC50 worked out at 0.9 µM. The IC50 values of the last two compounds are within 1.5-fold of each other.

The compound `FC(F)(F)c1ccc2nccc(NN=Cc3cccnc3)c2c1` displayed an IC50 of 0.63 µM.

`Cc1[nH]c(C)c(-c2ccc(-c3cccc(Cl)c3)nc2)c(=O)c1Br` came in with an IC50 of 0.32 µM. This IC50 is about 2-fold lower than that of the compound before.

For `COc1cc(OC)nc(-c2cccc(NC(=O)c3ccc4c(=O)n(CCN5CCCCC5)cnc4c3)c2)n1`, the IC50 came out at 0.74 µM.

In the case of `Cc1c(Cl)ccc2sc(N3CCN(C(=O)c4ccc([N+](=O)[O-])o4)CC3)nc12`, the IC50 stood at 0.75 µM.

Compound `CC(Cc1ccc(Oc2ccccc2)cc1)NCC(O)c1cccc(C(F)(F)F)c1` (stereo not drawn) had an IC50 of 0.67 µM.

`NC(=O)c1cc2nc(Nc3ccc(F)cc3)nc(NC3CCC3)c2[nH]1` displayed an IC50 of 0.2 µM.

`CN=C(Nc1c(Cl)cccc1Cl)N(C)C` yielded an IC50 of 0.82 µM.

In the case of `CN1CCCN(Cc2ccc(-c3cccc(NC(=O)c4ccc(F)cc4)c3)cc2)CC1`, the IC50 was 1.09 µM.

Turning to `COC(=O)/C=C/c1ccc(CC(C)NCC(O)c2cccc(C(F)(F)F)c2)cc1` (stereo not drawn), the IC50 turned out to be 0.77 µM.

For `Cc1cccc2[nH]c(-c3ccc(-c4ccc(NC(=O)N[C@@H]5C[C@H]5c5ccccc5)cc4)cc3)nc12`, the IC50 is 0.88 µM.

In turn, `CC[C@H](C)CNC(=O)c1cccc(-c2ccc(CN3CCC(N4CCCC4)CC3)cc2)n1` yielded an IC50 of 0.79 µM.

Turning to `COc1ccc(CN2C(=S)N(Cc3ccccc3)C(=O)C2CC(=O)Nc2ccccc2)cc1OC` (stereo not drawn), the IC50 was found to be 0.84 µM.

Compound `CCCc1cc(Cc2cnc(N)nc2N)cc(CC)c1O` gave an IC50 of 1.32 µM.

Compound `CCN(CC)CCN(Cc1ccc(-c2ccc(C(F)(F)F)cc2)cc1)C(=O)Cn1c(CCc2cc(F)cc(F)c2)nc(=O)c2ccccc21` displayed an IC50 of 0.98 µM.

Take `CC(=O)Nc1ccc2[nH]cc(C3CCN(CC4CCN(C(=O)/C=C/c5ccc(Cl)c(Cl)c5)CC4)CC3)c2c1`: the IC50 turned out to be 0.72 µM.

In turn, `COc1ccc(-c2cccc(NC(=O)c3cccc(C#N)c3)c2)cc1CN1CCN(C)CC1` gave an IC50 of 0.93 µM.

Compound `COc1ccc(NC(=O)c2ccc(NC(=O)c3ccc(Cl)cc3)cc2)cc1N1CCN(C)CC1` came in with an IC50 of 0.85 µM.

`C/C=C/COc1ccc2ccccc2c1CNCCCCCCCCNCc1c(OC/C=C/C)ccc2ccccc12` gave an IC50 of 0.91 µM.

Compound `NC1CCCN(Cc2cccc(-c3ccc(-c4nc5ccc(F)cc5[nH]4)cc3)c2)C1` (stereo not drawn) came in with an IC50 of 0.57 µM.

Regarding `CC(C)(C)c1ccc(CNC(=O)c2cc(CNC3CCNC3)ccc2O)cc1` (stereo not drawn), the IC50 was 0.8 µM.

The compound `Cc1nc(-c2cccc(Nc3nccc(NCC(O)c4cccc(C(F)(F)F)c4)n3)c2)cs1` (stereo not drawn) returned an IC50 of 0.63 µM.

In turn, `COc1cc2nc(NCCC(C)C)n3nc(-c4ccccc4)nc3c2cc1OC` yielded an IC50 of 0.42 µM.

`CN(C)CCNCc1cccc(-c2ccc3c(Nc4ccc(Oc5ccccn5)cc4)ccnc3c2)c1` had an IC50 of 0.23 µM.

For `O=C(NCC1CCN(C/C=C/c2ccccc2)CC1)Nc1ccc(Oc2ccccc2)cc1`, the IC50 amounted to 1.04 µM.

Compound `Cc1cc(N2CCCC2)nc(Nc2ccc(NC(=O)COc3ccccc3)cc2)n1` registered an IC50 of 0.65 µM. This IC50 lies about 1.6-fold lower than the previous one.

In the case of `O=C(NC1CCC(CN2CCC(c3c[nH]c4ccccc34)CC2)CC1)c1cc2ccccc2s1` (stereo not drawn), the half-maximal inhibitory concentration (IC50) is 0.73 µM.

`CCc1ccc(NC(=O)C=NN=C(N)N)cc1`: the IC50 came to 0.9 µM.

For `Cn1cnc(CCNC(=O)c2ccc(-c3ccc(-c4nc5ccc(F)cc5[nH]4)cc3)cc2)c1`, the half-maximal inhibitory concentration (IC50) came to 0.87 µM. This IC50 and that of the compound before are within 1.5-fold of each other.

For the compound `COc1ccc2nccc(N3CCC(SCCNCc4ccc5c(n4)NC(=O)CS5)C3)c2n1` (stereo not drawn), the IC50 is 0.25 µM. Compared with the last compound, the IC50 is about 3.5-fold lower.

`Cn1nc(-c2cccc(CNC3CCc4ccccc43)c2)c2cnc(NCCCN3CCCC3)nc21` (stereo not drawn) returned an IC50 of 0.88 µM. This IC50 is about 3.5-fold higher than that of the compound before.

With `CC[C@H]1CN2CC[C@@H]1C[C@H]2[C@H](O)c1cc(N2CCC(O)(c3ccc(Cl)cc3)CC2)nc2ccc(OC)cc12`, the IC50 turned out to be 0.07 µM.

In turn, `CCOc1cc(C2C(C(=O)OC(C)C)=C(C)NC3=C2C(=O)CC(c2ccc(Cl)cc2)C3)ccc1OC(C)=O` (stereo not drawn) returned an IC50 of 0.93 µM. This IC50 lies about 13-fold higher than the previous one.

The compound `O=C1NC(C(=O)Nc2ccccc2)C(c2ccccc2)S1` (stereo not drawn) came in with an IC50 of 0.17 µM.

For the compound `CC(C)c1ccc(S(=O)(=O)N(c2ccc3c(c2)OCO3)C2CCN(Cc3ccccc3)C2)cc1` (stereo not drawn), the IC50 came to 0.35 µM. Against the preceding compound, the IC50 is about 2.1-fold higher.

The compound `COc1ccc2nc(C)cc(NN=Cc3ccc(Cl)cc3)c2c1` registered an IC50 of 0.23 µM.

Consider `CN(C)c1ccc(CN2CCC(NC(=O)c3ccc(-c4cccc(Cl)c4)s3)CC2)cc1`, for which the IC50 came out at 0.92 µM.

`CCCC(C)Nc1nc(C)cc(N[C@@H](Cc2ccccc2)C(=O)Nc2ccc(OC)cc2)n1` (stereo partly drawn) came in with an IC50 of 1.12 µM.

`COc1ccccc1C1CCN(CCN2CCC(NC(=O)c3ccc(-c4ccc(C#N)cc4)cc3)CC2)CC1` gave an IC50 of 0.79 µM.

As for `COc1ccc(-c2ccc(NC(=O)c3cccc(C#N)c3)cc2)cc1CN1CCCN(C)CC1`, the IC50 turned out to be 0.29 µM.

`COCCCN=C(N)c1ccc(NC(=O)c2ccc(C(=O)Nc3ccc(C(N)=NCCCOC)cc3)cc2)cc1` had an IC50 of 0.05 µM.

The compound `COc1ccc(C=NNc2nc(-c3ccccc3)cc(=O)[nH]2)cc1OC` gave an IC50 of 0.59 µM.

`O=C(Nc1cccnc1)c1cn(-c2ccccc2)nc1-c1cccs1` came in with a half-inhibitory concentration (IC50) of 0.87 µM.

Take `Cc1cc(Nc2ccc(C)c(Cl)c2)n2ncnc2n1`: the concentration for half-maximal inhibition (IC50) was determined as 0.55 µM.

`COc1ccc2ncc(F)c([C@@H](O)CN3CCC(NCc4cc5c(cn4)OCS5)CC3)c2c1`: the IC50 was determined as 0.14 µM.

With `OC(CNCc1ccccc1OCc1ccccc1)c1cccc(I)c1` (stereo not drawn), the IC50 worked out at 0.42 µM.

Turning to `CC(CN1CCN(C)CC1)C(=O)Nc1ccc(-c2cccc(-c3nc4ccc(C(F)(F)F)cc4[nH]3)c2)cc1` (stereo not drawn), the IC50 is 0.4 µM.

The compound `COc1ccc(CN2CCN(CCOC(c3ccccc3)c3ccccc3)CC2)c(O)c1` returned an IC50 of 1.19 µM.

As for `Cc1ccc(NC(=O)c2ccc(CN3CCCN(Cc4cccc(O)c4)CC3)cc2)cc1F`, the IC50 came out at 0.59 µM.

In turn, `CCOc1ccc(CCC(=O)O)cc1OCC` had an IC50 of 1.03 µM.

Compound `O=C(Nc1ccccc1Cc1ccccc1)c1ccccc1[N+](=O)[O-]` displayed an IC50 of 0.86 µM.

`CC(C)(C)Nc1cc(C(=O)N[C@@H](Cc2ccccc2)[C@H](O)CNC2CCOCC2)cc(N2CCCCS2(=O)=O)c1`: the half-maximal inhibitory concentration (IC50) came out at 0.15 µM.

Consider `CN1CCc2cc(CN3C[C@]4(C)C[C@H]3CC(C)(C)C4)c(O)cc2C(c2ccccc2)C1` (stereo partly drawn), for which the half-inhibitory concentration (IC50) was 0.72 µM.
